We go through 3 molecules from patent US20040009921A1, “Methods and compositions for the treatment of cancer” (Allergan, Inc., priority 2002, published 2004).

In one test the test system is β-catenin. In words: Western blotting of β-catenin protein in HEK293 cells and stable lines RBC, CAT, RmBC. The conditions noted are these: for β-catenin stability / degradation, ligand applied alone: HEK293 with β-catenin and RXRα, FIG. 4B. The format is cell-based, human. The method, then: (§1) (A) Western blotting analysis of HEK293 cells transfected with a combination of expression vectors for LacZ (2 μg), V5-tagged β-catenin(4 μg), and Flag-tagged RXRα (2 μg) as indicated below the gels. […] RXRα protein was measured using an HRP-conjugated mouse monoclonal antibody against the Flag tag. (B) Western blotting analysis of stable cell line RBC that overexpresses both β-catenin and RXRα. […] (C) Western blotting analysis of stable cell line CAT that overexpresses only β-catenin. […] Endogenous and overexpressed β-catenin were detected using a rabbit polyclonal antibody as indicated by “Total” whereas overexpressed β-catenin was analyzed using a mouse monoclonal antibody against the V5 tag. Endogenous and overexpressed RXRα were detected by a rabbit polyclonal antibody against RXRα, whereas overexpressed RXRα was determined by an HRP-conjugated mouse monoclonal antibody against the Flag tag. (D) Western blotting analysis of HEK293 cells transfected with a fixed amount of β-catenin (4 μg) plus an increasing amount of RXRα as indicated at the top. […] (E) Western blotting analysis of HEK293, CV-1, and Hela cells transfected with 2 μg of RXRα and 4 μg of wild type or mutant β-catenin. α. […] (F) Northern blotting analysis of RBC cells using β-catenin as a probe.
(§2) FIG. 4 Receptor and ligand specificity in degradation of β-catenin by retinoid receptors. HEK293 cells transfected with expression vectors for β-catenin (4 μg) and RXRs (2 μg) or RARs (2 μg) and treated with ligands at concentrations indicated at the top of each gel. Protein levels were detected by Western blotting as shown in this figure. β-catenin and RARs were detected by HRP-conjugated antibodies against their V5 tag. RXRs were detected by HRP-conjugated antibodies against their Flag tag. […] In this experiment, the amount of expression vectors for RXRα and RARs used in transfection was 1 μg.
(§3) HEK293 cells were seeded at a density of […] per dish were seeded into 100-mm dishes and cultured overnight in DMEM containing 10% FBS. Cells were transfected with 1-4 μg of various cDNA or parental expression vectors (8 μg of DNA in total) using Lipofectamine®. Five hours after transfection, cells were fed with fresh culture media DMEM containing 10% charcoal-treated FBS with vehicle DMSO or retinoids prepared in DMSO. After a given time of treatment, cells were harvested and lysed in a buffer containing 1% Nonidet® P-40, 30 mM Tris-HCl (pH7.4), 0.5 mM EDTA (pH 8.0), 150 mM NaCl, 10% glycerol, 1 mM sodium orthovanadate, 40 mM NaF, 0.5 mM phenylmethylsulfonyl fluoride (PMSF) and a cocktail of protease inhibitors (Merck).
(§4) Total cell lysates were homogenized by passing through a QIAshredder® (Qiagen) and cleared from insoluble materials by centriftigation at 12,000 g. Protein concentration was determined using a Bradford total protein assay kit (Bio-Rad). Total cell lysates were electrophoresed using a 4-12% SDS-PAGE gradient gel and transferred to either nitrocellulose or PVDF filter membranes. The membranes were blocked with 10% non-fat milk reconstituted from dairy milk powder in phosphate-buffered saline (PBS) containing 0.1% Tween®-20 (PBST). The membranes were incubated with primary antibodies at room temperature for 2 hours or at 4° C. for overnight. After the removal of unbound antibodies, membranes were incubated with horseradish peroxidase-conjugated secondary antibodies for one hour at room temperature and washed five times with PBST.
A general note: Immunoblotting shows a protein as a band on a membrane.

Another test concerns RXRα. The test is described as follows: Western blotting of RXRα protein in HEK293 cells and stable lines. The format is cell-based, human. To be noted: HEK293 with β-catenin and RXRα, FIG. 4B. How it is done:
as §1, §2, §3, §4

In a further test the test system is hepatocarcinoma. The conditions noted are these: experimental and clinical studies; cited from earlier work.

“Also recorded” adds a separate entry of the source.

For `C/C(=C\c1ccc(C(=O)O)cc1)c1ccc2c(c1)C(C)(C)CCC2(C)C` [TTNPB, reference compound], in the test with β-catenin (HEK293 overexpressing RARα), the β-catenin protein entry is listed as “a slight decrease”. The “β-catenin stability / degradation, ligand applied alone” value in the test with β-catenin is on record as “have no effects; also recorded: no effect”. For the same molecule, the “RXRα stability, ligand applied alone” value in the test with RXRα is recorded as “no effect”.

`CCc1ccc(C2=CC(C)(C)Sc3ccc(C#Cc4ccc(C(=O)O)cc4)cc32)cc1` [compound 194310, reference compound]: the “antagonism of the effect of AGN 4204 on degradation of RARs and β-catenin” value with β-catenin (HEK293 co-expressing RXRα and RARs, with AGN 4204) was “not antagonized”. For the same molecule, the “β-catenin stability / degradation, ligand applied alone” value was “no effect” in the test with β-catenin and “have no effects” in the test with β-catenin (listed as AGN194310). The “RXRα stability, ligand applied alone” value with RXRα is listed as “no effect”.

As for `CC1=C(/C=C/C(C)=C\C=C\C(C)=C\C(=O)O)C(C)(C)CCC1` [9-cis retinoic acid], the development of hepatocarcinoma entry in the test with hepatocarcinoma was “suppress the development of hepatocarcinoma”.
